Measurements from PubChem BioAssay (NCI).
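In this assay, cells in 96-well plates receive the compound at five concentrations for 48 hours. Endpoints are linearly interpolated between the surrounding concentrations. Definition used: TGI = concentration required for complete inhibition of growth.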

Assays:
Experiment in all cases: inhibition of tumour cell growth, NCI panel, 48 h
HOP-18 NSCLC = tested on: HOP-18 NSCLC
SK-MEL-28 melanoma = tested on: SK-MEL-28 melanoma
CCRF-CEM leukemia = tested on: CCRF-CEM leukemia
SNB-19 CNS = tested on: SNB-19 CNS
NCI-H23 lung = tested on: NCI-H23 lung
K-562 leukemia = tested on: K-562 leukemia
SK-MEL-5 melanoma = tested on: SK-MEL-5 melanoma
NCI-H522 lung = tested on: NCI-H522 lung
HL-60(TB) leukemia = tested on: HL-60(TB) leukemia
RPMI-8226 leukemia = tested on: RPMI-8226 leukemia
HT29 colon = tested on: HT29 colon
SF-268 CNS = tested on: SF-268 CNS
KM20L2 colon = tested on: KM20L2 colon
HCT-116 colon = tested on: HCT-116 colon
DMS 273 small cell lung = tested on: DMS 273 small cell lung
SNB-75 CNS = tested on: SNB-75 CNS
SF-539 CNS = tested on: SF-539 CNS
SF-295 CNS = tested on: SF-295 CNS
NCI-H226 lung = tested on: NCI-H226 lung
HCC-2998 colon = tested on: HCC-2998 colon
EKVX NSCLC = tested on: EKVX NSCLC
UACC-257 melanoma = tested on: UACC-257 melanoma
TK-10 renal = tested on: TK-10 renal
OVCAR-8 ovarian = tested on: OVCAR-8 ovarian
UACC-62 melanoma = tested on: UACC-62 melanoma
OVCAR-5 ovarian = tested on: OVCAR-5 ovarian
MALME-3M melanoma = tested on: MALME-3M melanoma
LOX IMVI melanoma = tested on: LOX IMVI melanoma
RXF 393 renal = tested on: RXF 393 renal
OVCAR-3 ovarian = tested on: OVCAR-3 ovarian
DMS 114 small cell lung = tested on: DMS 114 small cell lung
SW-620 colon = tested on: SW-620 colon
SN12C renal = tested on: SN12C renal
UO-31 renal = tested on: UO-31 renal
HOP-92 NSCLC = tested on: HOP-92 NSCLC
A549 NSCLC = tested on: A549 NSCLC
ACHN renal = tested on: ACHN renal
MOLT-4 leukemia = tested on: MOLT-4 leukemia
KM12 colon = tested on: KM12 colon
SK-OV-3 ovarian = tested on: SK-OV-3 ovarian
SR leukemia = tested on: SR leukemia
DLD-1 colon = tested on: DLD-1 colon
786-0 renal = tested on: 786-0 renal
M19-MEL melanoma = tested on: M19-MEL melanoma
HCT-15 colon = tested on: HCT-15 colon
OVCAR-4 ovarian = tested on: OVCAR-4 ovarian
NCI-H460 lung = tested on: NCI-H460 lung
HOP-62 NSCLC = tested on: HOP-62 NSCLC
RXF-631 renal = tested on: RXF-631 renal
SK-MEL-2 melanoma = tested on: SK-MEL-2 melanoma
M14 melanoma = tested on: M14 melanoma
IGROV1 ovarian = tested on: IGROV1 ovarian
COLO 205 colon = tested on: COLO 205 colon
LXFL 529 NSCLC = tested on: LXFL 529 NSCLC
U251 CNS = tested on: U251 CNS
XF 498 CNS = tested on: XF 498 CNS

Measured: TGI

CC(C)=CC(C(O)c1ccccc1)S(=O)(=O)c1nccn1C (stereo unspecified)
> 100 µM: HOP-18 NSCLC | SK-MEL-28 melanoma | CCRF-CEM leukemia | SNB-19 CNS | NCI-H23 lung | K-562 leukemia | SK-MEL-5 melanoma | NCI-H522 lung | HL-60(TB) leukemia | RPMI-8226 leukemia | HT29 colon | SF-268 CNS | KM20L2 colon | HCT-116 colon | DMS 273 small cell lung | SNB-75 CNS | SF-539 CNS | SF-295 CNS | NCI-H226 lung | HCC-2998 colon | EKVX NSCLC | UACC-257 melanoma | TK-10 renal | OVCAR-8 ovarian | UACC-62 melanoma | OVCAR-5 ovarian | MALME-3M melanoma | LOX IMVI melanoma | RXF 393 renal | OVCAR-3 ovarian | DMS 114 small cell lung | SW-620 colon | SN12C renal | UO-31 renal | HOP-92 NSCLC | A549 NSCLC | ACHN renal | MOLT-4 leukemia | KM12 colon | SK-OV-3 ovarian | SR leukemia | DLD-1 colon | 786-0 renal | M19-MEL melanoma | HCT-15 colon | OVCAR-4 ovarian | NCI-H460 lung | HOP-62 NSCLC | RXF-631 renal | SK-MEL-2 melanoma | M14 melanoma | IGROV1 ovarian | COLO 205 colon | LXFL 529 NSCLC | U251 CNS | XF 498 CNS
